In article PMC12504763, “Antiproliferation, 3D-multicellular spheroid and VEGFR-2 inhibitory properties of spiroindolin-2-ones with phosphonate function” (Scientific Reports, 2025):
Where “and” joins values, the source holds several entries; their conditions need not be identical. Equal entries are not always repeated. Where two headings read alike, the source gives them in different places.

Assays:
[1] = tested on: HCT116 (colon) cancer cell line; experiment: 2D-monolayer antiproliferation (MTT) against HCT116; assay type: cell-based, human; conditions: for IC50: Homo sapiens, HCT-116; for SI (selectivity index) HCT116: IC50 of RPE1 normal cell/IC50 of HCT116
[2] = tested on: TNF-α; experiment: TNF-α inhibitory properties (ELISA), HCT116 cell lysate; assay type: cell-based, human; conditions: at 10 μM; for TNF-α pg/mL (± SEM) HCT116: control 95.74 ± 0.5
[3] = tested on: PaCa2 (pancreatic) cancer cell line; experiment: 2D-monolayer antiproliferation (MTT) against PaCa2; assay type: cell-based, human; conditions: for 1/(observed property): 1/observed IC50 (μM), PaCa2; for IC50: Homo sapiens, PaCa-2, MTT, 72 h incubation, PaCa2 pancreatic, read-out: IC50, μM ± SEM PaCa2; for SI (selectivity index) PaCa2: IC50 of RPE1 normal cell/IC50 of PaCa2
[4] = tested on: HCT116 3D-spheroid; conditions: HCT116 3D-spheroid at 50 μM, relative to control
[5] = tested on: TNF-α; experiment: TNF-α inhibitory properties (ELISA), PaCa2 cell lysate; assay type: cell-based, human; conditions: at 10 μM; for TNF-α pg/mL (± SEM) PaCa2: control 111.8 ± 2.0
[6] = molecular target: T1, VEGFR-2 (Homo sapiens, UniProt P35968); experiment: cell-based; assay type: cell-based; conditions: for inhibition at 10 µM: PaCa-2, PaCa2; for VEGFR-2 pg/mL ± SEM PaCa2: at 10 μM, control 326.80 ± 1.9
T1 construct: endogenous in cells; host or cells: HCT116, PaCa2, MCF7 (human cancer cell lines, ATCC origin)

[7] = molecular target: T1, VEGFR-2; experiment: cell-based; assay type: cell-based; conditions: for inhibition at 10 µM: MCF7; for VEGFR-2 pg/mL ± SEM MCF7: at 10 μM, control 258.70 ± 2.3
[8] = tested on: MCF7 (breast) cancer cell line; experiment: 2D-monolayer antiproliferation (MTT) against MCF7; assay type: cell-based, human; conditions: for IC50: Homo sapiens, MTT, 72 h incubation, MCF7 breast, read-out: IC50, μM ± SEM MCF7; for SI (selectivity index) MCF7: IC50 of RPE1 normal cell/IC50 of MCF7
[9] = tested on: A549 (lung) cancer cell line; experiment: 2D-monolayer antiproliferation (MTT) against A549; assay type: cell-based, human; conditions: for IC50: Homo sapiens, MTT, 72 h incubation, A549 lung, read-out: IC50, μM ± SEM A549; for SI (selectivity index) A549: IC50 of RPE1 normal cell/IC50 of A549
[10] = molecular target: T1, VEGFR-2; experiment: cell-based; assay type: cell-based; conditions: for inhibition at 10 µM: HCT-116, HCT116; for VEGFR-2 pg/mL ± SEM HCT116: at 10 μM, control 317.80 ± 3.5
[11] = molecular target: T2, COX-1 (Ovis aries, UniProt P05979); experiment: biochemical; conditions: 3 replicates, read-out: % Inhibition of COX-1 ± SEM
T2 construct: purchased BioVision incorporated USA K548–100
T2 sequence (P05979 25-600): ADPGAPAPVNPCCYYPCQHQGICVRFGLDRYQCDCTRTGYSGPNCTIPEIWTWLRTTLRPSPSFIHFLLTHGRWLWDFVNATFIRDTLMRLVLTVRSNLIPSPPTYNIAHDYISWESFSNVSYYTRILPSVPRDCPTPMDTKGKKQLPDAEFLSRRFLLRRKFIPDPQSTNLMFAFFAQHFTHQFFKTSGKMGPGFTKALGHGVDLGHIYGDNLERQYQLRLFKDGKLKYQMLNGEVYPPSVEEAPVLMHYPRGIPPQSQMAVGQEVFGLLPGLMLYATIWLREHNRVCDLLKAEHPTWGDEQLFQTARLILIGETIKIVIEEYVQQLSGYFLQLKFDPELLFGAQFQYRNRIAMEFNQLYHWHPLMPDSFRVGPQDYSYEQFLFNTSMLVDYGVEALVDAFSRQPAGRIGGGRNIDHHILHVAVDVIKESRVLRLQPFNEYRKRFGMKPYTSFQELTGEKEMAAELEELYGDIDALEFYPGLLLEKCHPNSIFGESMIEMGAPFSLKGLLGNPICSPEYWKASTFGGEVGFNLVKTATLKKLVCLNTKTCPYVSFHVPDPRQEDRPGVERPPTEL

[12] = molecular target: T3, COX-2 (Homo sapiens, UniProt P35354); experiment: biochemical; conditions: for inhibition at 10 µM: 3 replicates, read-out: % Inhibition of COX-2 ± SEM; for SI (selectivity index, COX-2/COX-1): at 10 μM
T3 construct: purchased BioVision incorporated USA K548–100
T3 sequence (P35354 18-604): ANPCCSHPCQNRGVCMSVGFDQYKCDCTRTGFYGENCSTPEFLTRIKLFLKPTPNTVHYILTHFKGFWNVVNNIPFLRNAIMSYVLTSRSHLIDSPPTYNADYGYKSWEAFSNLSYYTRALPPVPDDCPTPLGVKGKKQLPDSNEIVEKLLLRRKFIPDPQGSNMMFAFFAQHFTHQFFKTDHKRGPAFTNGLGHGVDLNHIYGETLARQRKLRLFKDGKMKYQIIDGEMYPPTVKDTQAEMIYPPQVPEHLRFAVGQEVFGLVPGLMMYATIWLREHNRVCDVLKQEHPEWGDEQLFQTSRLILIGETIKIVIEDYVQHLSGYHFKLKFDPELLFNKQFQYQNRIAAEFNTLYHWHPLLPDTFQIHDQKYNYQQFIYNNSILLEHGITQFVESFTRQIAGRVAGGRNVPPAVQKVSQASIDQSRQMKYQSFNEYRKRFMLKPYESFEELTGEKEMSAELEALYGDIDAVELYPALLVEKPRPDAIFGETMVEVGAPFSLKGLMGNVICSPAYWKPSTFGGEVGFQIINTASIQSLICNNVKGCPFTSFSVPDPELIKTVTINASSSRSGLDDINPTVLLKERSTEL

[13] = tested on: RPE1 (normal human immortalized retinal pigment epithelial cell line); experiment: cells; assay type: cell-based; conditions: Homo sapiens, RPE-1; MTT, normal RPE1 cell; read-out: IC50, μM ± SEM RPE1
[14] = tested on: TNF-α; experiment: TNF-α inhibitory properties (ELISA), MCF7 cell lysate; assay type: cell-based, human; conditions: at 10 μM; for TNF-α pg/mL (± SEM) MCF7: control 83.26 ± 1.1
[15] = tested on: CAM blood vessel network; experiment: Chick chorioallantoic membrane (CAM) anti-angiogenic assay; assay type: in vivo, chicken; conditions: CAM test, 20 μL of 660 μM, 3 days; control 459.7 ± 13.8
Method: CAM assay is an established xenograft technique for investigating the angiogenic effect due to the high resemblance of the human vascularized epithelium basement membrane with that of the chorioallantoic layer containing mainly type IV collagen[84]–[86].
Fig. 10 Images of light microscopy for anti-angiogenic evaluation of the tested compounds using CAM assay. […] The glass slide was placed on the surface of the CAM blood vessel network and left in an incubator at 37 °C for 3 days. The CAM blood vessel network was carefully cut and imaged under a light microscope (40 × magnification).
Fertilized white chicken eggs were incubated in a 37 °C incubator with constant humidity. On day 8, a small squared window was opened allowing the detachment of the growing CAM and shell. The opening was covered with an elastic bandage. […] The CAM was then sealed with a bandage and placed back in the incubator. CAMs were examined daily until day 12 (3 days), the vascularized membranes were then cut around the glass slide and fixed in 5% formalin. Images were taken with an Evos microscope at 40x and 100x magnification^9. Main blood vessel in the microscopic images of controls and samples were quantified by imageJ and analyzed for significant differences (n = 4).

[16] = MTT, 72 h incubation, HCT116 colon, read-out: IC50, μM ± SEM HCT116
[17] = log of observed IC50 (μM), HCT116, read-out: Log(observed property) (converted)

T1 sequence (P35968 20-1356): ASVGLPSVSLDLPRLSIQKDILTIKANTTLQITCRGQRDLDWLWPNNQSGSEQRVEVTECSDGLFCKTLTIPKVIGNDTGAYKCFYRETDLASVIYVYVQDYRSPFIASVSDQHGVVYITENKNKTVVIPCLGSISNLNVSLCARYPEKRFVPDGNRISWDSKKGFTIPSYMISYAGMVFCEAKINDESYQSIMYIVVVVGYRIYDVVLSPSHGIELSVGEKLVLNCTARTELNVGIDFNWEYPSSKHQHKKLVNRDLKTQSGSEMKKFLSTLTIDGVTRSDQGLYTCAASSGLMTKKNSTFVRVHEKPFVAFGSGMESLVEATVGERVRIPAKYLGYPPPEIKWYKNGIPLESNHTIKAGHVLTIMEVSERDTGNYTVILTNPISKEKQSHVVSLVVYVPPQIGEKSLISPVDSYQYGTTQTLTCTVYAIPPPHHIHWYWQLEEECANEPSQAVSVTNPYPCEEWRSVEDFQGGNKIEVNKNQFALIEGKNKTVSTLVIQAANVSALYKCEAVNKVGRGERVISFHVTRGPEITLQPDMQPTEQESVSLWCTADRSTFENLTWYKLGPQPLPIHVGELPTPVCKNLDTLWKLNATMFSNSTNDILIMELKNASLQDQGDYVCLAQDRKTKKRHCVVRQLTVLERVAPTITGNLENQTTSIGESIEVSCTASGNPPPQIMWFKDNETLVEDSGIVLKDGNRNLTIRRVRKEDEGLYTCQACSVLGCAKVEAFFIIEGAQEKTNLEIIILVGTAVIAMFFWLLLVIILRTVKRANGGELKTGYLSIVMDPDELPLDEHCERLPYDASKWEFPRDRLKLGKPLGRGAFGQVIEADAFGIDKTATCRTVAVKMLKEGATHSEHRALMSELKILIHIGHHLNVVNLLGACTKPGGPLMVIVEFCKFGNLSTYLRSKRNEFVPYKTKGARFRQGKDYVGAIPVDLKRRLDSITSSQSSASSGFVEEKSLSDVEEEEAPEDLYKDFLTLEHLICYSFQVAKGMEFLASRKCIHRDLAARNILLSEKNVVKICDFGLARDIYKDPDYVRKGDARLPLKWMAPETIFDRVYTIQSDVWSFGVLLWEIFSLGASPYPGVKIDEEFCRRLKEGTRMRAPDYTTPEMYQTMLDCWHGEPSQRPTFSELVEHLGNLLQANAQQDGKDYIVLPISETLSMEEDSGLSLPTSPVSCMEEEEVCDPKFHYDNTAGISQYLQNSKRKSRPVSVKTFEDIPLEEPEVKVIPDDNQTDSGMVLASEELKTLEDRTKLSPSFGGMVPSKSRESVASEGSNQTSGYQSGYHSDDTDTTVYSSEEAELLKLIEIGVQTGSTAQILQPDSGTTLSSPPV

Structure (SMILES)	IC50 [1, 16] [µM]	IC50 [1, 17] [µM]	SI (selectivity index) HCT116 [1]	TNF-α pg/mL (± SEM) HCT116 [2] [pg/mL]	1/(observed property) [3]	IC50 [3] [µM]	SI (selectivity index) PaCa2 [3]	TNF-α pg/mL (± SEM) PaCa2 [5] [pg/mL]	inhibition at 10 µM [6] [%]	VEGFR-2 pg/mL ± SEM PaCa2 [6] [pg/mL]	inhibition at 10 µM [7] [%]	VEGFR-2 pg/mL ± SEM MCF7 [7] [pg/mL]	IC50 [8] [µM]	SI (selectivity index) MCF7 [8]	IC50 [9] [µM]	SI (selectivity index) A549 [9]	inhibition at 10 µM [10] [%]	VEGFR-2 pg/mL ± SEM HCT116 [10] [pg/mL]	inhibition at 10 µM [11] [%]	inhibition at 10 µM [12] [%]	further results
CCOP(=O)(OCC)N1C/C(=C\c2ccccc2)C(=O)C2(C1)C(c1ccccc1)CN(C)C21C(=O)Nc2ccc(C)cc21 (stereo not shown) [Compound 17d, Diethyl (E)-(5′′-benzylidene-1′,5-dimethyl-2,4′′-dioxo-4′-phenyldispiro[indoline-3,2′-pyrrolidine-3′,3′′-piperidin]-1′′-yl)phosphonate]	9.278 ± 0.084	9.28	1.9	94.80 ± 2.5	0.06423	15.6 ± 0.329	1.2	103.7 ± 4.2	83.7	53.42 ± 0.7	71.9	72.80 ± 1.2	5.78 ± 0.13	3.1	14.6 ± 0.27	1.2	72.5	87.40 ± 1.9	51.8 ± 2.2	56.4 ± 1.9	TNF-α % inhibition HCT116 [2]: 1.0%; %CT (± SEM), percentage cytotoxicity [4]: 64.1% and 64.1 ± 7.0%; TNF-α % inhibition PaCa2 [5]: 7.2%; SI (selectivity index, COX-2/COX-1) [12]: 0.82; IC50 [13]: 17.9 ± 0.945 µM; TNF-α % inhibition MCF7 [14]: 0.1%; TNF-α pg/mL (± SEM) MCF7 [14]: 83.2 ± 4.5 pg/mL
CCOP(=O)(OCC)N1C/C(=C\c2ccc(C)cc2)C(=O)C2(C1)C(c1ccc(C)cc1)CN(C)C21C(=O)Nc2ccccc21 (stereo not shown) [Compound 17m, Diethyl (E)-[1′-methyl-5′′-(4-methylbenzylidene)-2,4′′-dioxo-4′-(p-tolyl)dispiro[indoline-3,2′-pyrrolidine-3′,3′′-piperidin]-1′′-yl]phosphonate]	3.44 ± 0.083	3.44	2.8	21.65 ± 0.9	0.1784	5.61 ± 0.063	1.7	32.83 ± 1.3	92.2	25.36 ± 1.0	83.5	42.80 ± 0.4	4.21 ± 0.085	2.3	8.18 ± 0.435	1.2	86	44.50 ± 0.5	58.3 ± 3	60.9 ± 1.1	TNF-α % inhibition HCT116 [2]: 77.4%; TNF-α % inhibition PaCa2 [5]: 70.6%; Diameter of blood vessel (μm ± SEM) [15]: 85.7 ± 2.6 μm; SI (selectivity index, COX-2/COX-1) [12]: 0.93; IC50 [13]: 9.57 ± 0.537 µM; TNF-α % inhibition MCF7 [14]: 68.5%; TNF-α pg/mL (± SEM) MCF7 [14]: 26.24 ± 2.2 pg/mL
CCOP(=O)(OCC)N1C/C(=C\c2ccc(Cl)cc2)C(=O)C2(C1)C(c1ccc(Cl)cc1)CN(C)C21C(=O)Nc2ccc(C)cc21 (stereo not shown) [Compound 17k, Diethyl (E)-(5′′-(4-chlorobenzylidene)-4′-(4-chlorophenyl)-1′,5-dimethyl-2,4′′-dioxodispiro[indoline-3,2′-pyrrolidine-3′,3′′-piperidin]-1′′-yl)phosphonate]	3.281 ± 0.022	3.28	2.5	26.48 ± 1.5	0.1502	6.66 ± 0.095	1.2	24.3 ± 1.4	76.6	76.40 ± 0.9	66.6	86.40 ± 0.5	4.98 ± 0.095	1.6	6.47 ± 0.385	1.3	78.7	67.80 ± 1.3	57.7 ± 1	55 ± 1.6	%CT (± SEM), percentage cytotoxicity [4]: 53.1% and 53.1 ± 2.2%; IC50 [13]: 8.15 ± 0.507 µM; TNF-α % inhibition MCF7 [14]: 72.6%; TNF-α pg/mL (± SEM) MCF7 [14]: 22.85 ± 1.8 pg/mL
CCOP(=O)(OCC)N1C/C(=C\c2ccccc2)C(=O)C2(C1)C(c1ccccc1)CN(C)C21C(=O)Nc2ccccc21 (stereo not shown) [Compound 17a, Diethyl (E)-(5′′-benzylidene-1′-methyl-2,4′′-dioxo-4′-phenyldispiro[indoline-3,2′-pyrrolidine-3′,3′′-piperidin]-1′′-yl)phosphonate]	7.97 ± 0.338	7.97	2.1	24.86 ± 0.8	0.0774	12.9 ± 0.559	1.3	24.8 ± 1.5	94.1	19.26 ± 1.0	80.1	51.50 ± 0.8	5.86 ± 0.259	2.9	14.5 ± 0.259	1.2	88	38.20 ± 1.6	49.8 ± 1.8	64.9 ± 2.8	TNF-α % inhibition HCT116 [2]: 74.0%; Diameter of blood vessel (μm ± SEM) [15]: 80.7 ± 3.7 μm; IC50 [13]: 16.8 ± 0.516 µM; TNF-α % inhibition MCF7 [14]: 78.1%; TNF-α pg/mL (± SEM) MCF7 [14]: 18.25 ± 1.1 pg/mL
